Measurements taken from ChEMBL document CHEMBL4507295 (2021).

Key:
[1] = test system: ALK tyrosine kinase receptor (Homo sapiens), Q9UM73 [C1156Y]; details: Compound concentration 1000.0 nM
[2] = target: Ephrin type-A receptor 5 (Homo sapiens) (UniProt P54756); details: Compound concentration 1000.0 nM
[3] = target: Tyrosine-protein kinase BTK (Homo sapiens) (UniProt Q06187); details: Compound concentration 1000.0 nM
[4] = target: Peripheral plasma membrane protein CASK (Homo sapiens) (UniProt O14936); details: Compound concentration 1000.0 nM
[5] = target: Serine/threonine-protein kinase DCLK1 (Homo sapiens) (UniProt O15075); details: Compound concentration 1000.0 nM
[6] = target: Serine/threonine-protein kinase 25 (Homo sapiens) (UniProt O00506); details: Compound concentration 1000.0 nM
[7] = target: Macrophage-stimulating protein receptor (Homo sapiens) (UniProt Q04912); details: Compound concentration 1000.0 nM
[8] = target: Vascular endothelial growth factor receptor 2 (Homo sapiens) (UniProt P35968); details: Compound concentration 1000.0 nM
[9] = target: Inhibitor of nuclear factor kappa-B kinase subunit alpha (Homo sapiens) (UniProt O15111); details: Compound concentration 1000.0 nM
[10] = target: Protein-tyrosine kinase 2-beta (Homo sapiens) (UniProt Q14289); details: Compound concentration 1000.0 nM
[11] = target: Receptor tyrosine-protein kinase erbB-2 (Homo sapiens) (UniProt P04626); details: Compound concentration 1000.0 nM
[12] = target: Phosphatidylinositol 4,5-bisphosphate 3-kinase catalytic subunit alpha isoform (Homo sapiens) (UniProt P42336); details: Compound concentration 1000.0 nM
[13] = target: Fibroblast growth factor receptor 2 (Homo sapiens) (UniProt P21802); details: Compound concentration 1000.0 nM
[14] = target: Wee1-like protein kinase (Homo sapiens) (UniProt P30291); details: Compound concentration 1000.0 nM
[15] = target: cAMP-dependent protein kinase catalytic subunit PRKX (Homo sapiens) (UniProt P51817); details: Compound concentration 1000.0 nM
[16] = target: Mitogen-activated protein kinase 14 (Homo sapiens) (UniProt Q16539); details: Compound concentration 1000.0 nM
[17] = target: Ankyrin repeat and protein kinase domain-containing protein 1 (Homo sapiens) (UniProt Q8NFD2); details: Compound concentration 1000.0 nM
[18] = target: Mitogen-activated protein kinase 3 (Homo sapiens) (UniProt P27361); details: Compound concentration 1000.0 nM
[19] = test system: Tyrosine-protein kinase ABL1 (Homo sapiens), P00519 [T315I]; details: Compound concentration 1000.0 nM
[20] = target: T1, Alpha-2B adrenergic receptor (Homo sapiens) (UniProt P18089); details: Compound concentration 10.0 uM
T1 sequence (whole entry): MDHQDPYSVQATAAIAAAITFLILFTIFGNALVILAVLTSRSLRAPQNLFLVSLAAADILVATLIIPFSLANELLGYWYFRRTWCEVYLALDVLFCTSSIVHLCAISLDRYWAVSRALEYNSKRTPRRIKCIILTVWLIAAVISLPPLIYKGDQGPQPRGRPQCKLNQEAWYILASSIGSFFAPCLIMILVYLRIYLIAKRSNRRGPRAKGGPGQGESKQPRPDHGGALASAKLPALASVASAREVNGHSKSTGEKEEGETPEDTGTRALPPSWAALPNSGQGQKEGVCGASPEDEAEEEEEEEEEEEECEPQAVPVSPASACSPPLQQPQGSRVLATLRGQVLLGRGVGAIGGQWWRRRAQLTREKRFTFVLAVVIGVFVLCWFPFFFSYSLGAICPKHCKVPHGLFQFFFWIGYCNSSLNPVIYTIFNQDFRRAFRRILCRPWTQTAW

[21] = target: BDNF/NT-3 growth factors receptor (Homo sapiens) (UniProt Q16620); details: Compound concentration 1000.0 nM
[22] = test system: Phosphatidylinositol 4,5-bisphosphate 3-kinase catalytic subunit alpha isoform (Homo sapiens), P42336 [E545K]; details: Compound concentration 1000.0 nM
[23] = test system: Epidermal growth factor receptor (Homo sapiens), P00533 [L861Q]; details: Compound concentration 1000.0 nM
[24] = target: Cyclin-dependent kinase-like 2 (Homo sapiens) (UniProt Q92772); details: Compound concentration 1000.0 nM
[25] = target: Cyclin-dependent kinase 3 (Homo sapiens) (UniProt Q00526); details: Compound concentration 1000.0 nM
[26] = target: Casein kinase I isoform gamma-3 (Homo sapiens) (UniProt Q9Y6M4); details: Compound concentration 1000.0 nM
[27] = target: ALK tyrosine kinase receptor (Homo sapiens) (UniProt Q9UM73); details: Compound concentration 1000.0 nM
[28] = target: Leukocyte tyrosine kinase receptor (Homo sapiens) (UniProt P29376); details: Compound concentration 1000.0 nM
[29] = target: MAP/microtubule affinity-regulating kinase 3 (Homo sapiens) (UniProt P27448); details: Compound concentration 1000.0 nM
[30] = target: Fibroblast growth factor receptor 1 (Homo sapiens) (UniProt P11362); details: Compound concentration 1000.0 nM
[31] = target: Homeodomain-interacting protein kinase 3 (Homo sapiens) (UniProt Q9H422); details: Compound concentration 1000.0 nM
[32] = test system: Tyrosine-protein kinase ABL1 (Homo sapiens), P00519 [T315I]; details: Compound concentration 1000.0 nM; remark: listed apart in the source
[33] = target: Hepatocyte growth factor receptor (Homo sapiens) (UniProt P08581); details: Compound concentration 1000.0 nM
[34] = target: Ribosomal protein S6 kinase alpha-4 (Homo sapiens) (UniProt O75676); details: Compound concentration 1000.0 nM
[35] = target: Ribosomal protein S6 kinase alpha-3 (Homo sapiens) (UniProt P51812); details: Compound concentration 1000.0 nM
[36] = target: Transient receptor potential cation channel subfamily M member 6 (Homo sapiens) (UniProt Q9BX84); details: Compound concentration 1000.0 nM
[37] = target: Serine/threonine-protein kinase 32C (Homo sapiens) (UniProt Q86UX6); details: Compound concentration 1000.0 nM
[38] = target: Receptor tyrosine-protein kinase erbB-3 (Homo sapiens) (UniProt P21860); details: Compound concentration 1000.0 nM
[39] = target: Serine/threonine-protein kinase tousled-like 2 (Homo sapiens) (UniProt Q86UE8); details: Compound concentration 1000.0 nM

Serine/threonine-protein kinase 25 (Homo sapiens), sequence (O00506 whole entry, looked up): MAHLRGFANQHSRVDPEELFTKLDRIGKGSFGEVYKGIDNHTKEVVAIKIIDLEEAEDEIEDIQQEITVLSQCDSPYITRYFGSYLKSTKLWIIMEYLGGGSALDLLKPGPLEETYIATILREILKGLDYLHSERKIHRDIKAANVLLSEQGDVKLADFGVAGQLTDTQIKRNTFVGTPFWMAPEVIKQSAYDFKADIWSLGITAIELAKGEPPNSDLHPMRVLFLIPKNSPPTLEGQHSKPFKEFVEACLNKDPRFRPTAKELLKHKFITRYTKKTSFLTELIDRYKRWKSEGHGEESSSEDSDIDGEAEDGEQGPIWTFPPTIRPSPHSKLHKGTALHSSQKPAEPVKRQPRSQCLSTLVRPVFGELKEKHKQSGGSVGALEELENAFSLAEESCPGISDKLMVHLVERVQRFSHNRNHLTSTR
Casein kinase I isoform gamma-3 (Homo sapiens), sequence (Q9Y6M4 whole entry, looked up, canonical isoform): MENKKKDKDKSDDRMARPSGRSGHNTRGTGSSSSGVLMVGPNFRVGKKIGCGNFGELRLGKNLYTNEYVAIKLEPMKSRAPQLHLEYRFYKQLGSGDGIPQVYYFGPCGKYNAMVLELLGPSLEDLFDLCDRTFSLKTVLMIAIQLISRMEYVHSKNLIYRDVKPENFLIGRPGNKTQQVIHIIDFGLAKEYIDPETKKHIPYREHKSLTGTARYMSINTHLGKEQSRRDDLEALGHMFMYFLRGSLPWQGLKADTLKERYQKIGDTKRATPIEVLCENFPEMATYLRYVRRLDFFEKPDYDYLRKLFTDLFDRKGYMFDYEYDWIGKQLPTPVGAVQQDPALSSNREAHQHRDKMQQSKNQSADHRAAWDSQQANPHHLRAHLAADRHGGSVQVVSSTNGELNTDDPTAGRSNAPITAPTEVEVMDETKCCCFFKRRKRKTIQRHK
Vascular endothelial growth factor receptor 2 (Homo sapiens), sequence (P35968 whole entry): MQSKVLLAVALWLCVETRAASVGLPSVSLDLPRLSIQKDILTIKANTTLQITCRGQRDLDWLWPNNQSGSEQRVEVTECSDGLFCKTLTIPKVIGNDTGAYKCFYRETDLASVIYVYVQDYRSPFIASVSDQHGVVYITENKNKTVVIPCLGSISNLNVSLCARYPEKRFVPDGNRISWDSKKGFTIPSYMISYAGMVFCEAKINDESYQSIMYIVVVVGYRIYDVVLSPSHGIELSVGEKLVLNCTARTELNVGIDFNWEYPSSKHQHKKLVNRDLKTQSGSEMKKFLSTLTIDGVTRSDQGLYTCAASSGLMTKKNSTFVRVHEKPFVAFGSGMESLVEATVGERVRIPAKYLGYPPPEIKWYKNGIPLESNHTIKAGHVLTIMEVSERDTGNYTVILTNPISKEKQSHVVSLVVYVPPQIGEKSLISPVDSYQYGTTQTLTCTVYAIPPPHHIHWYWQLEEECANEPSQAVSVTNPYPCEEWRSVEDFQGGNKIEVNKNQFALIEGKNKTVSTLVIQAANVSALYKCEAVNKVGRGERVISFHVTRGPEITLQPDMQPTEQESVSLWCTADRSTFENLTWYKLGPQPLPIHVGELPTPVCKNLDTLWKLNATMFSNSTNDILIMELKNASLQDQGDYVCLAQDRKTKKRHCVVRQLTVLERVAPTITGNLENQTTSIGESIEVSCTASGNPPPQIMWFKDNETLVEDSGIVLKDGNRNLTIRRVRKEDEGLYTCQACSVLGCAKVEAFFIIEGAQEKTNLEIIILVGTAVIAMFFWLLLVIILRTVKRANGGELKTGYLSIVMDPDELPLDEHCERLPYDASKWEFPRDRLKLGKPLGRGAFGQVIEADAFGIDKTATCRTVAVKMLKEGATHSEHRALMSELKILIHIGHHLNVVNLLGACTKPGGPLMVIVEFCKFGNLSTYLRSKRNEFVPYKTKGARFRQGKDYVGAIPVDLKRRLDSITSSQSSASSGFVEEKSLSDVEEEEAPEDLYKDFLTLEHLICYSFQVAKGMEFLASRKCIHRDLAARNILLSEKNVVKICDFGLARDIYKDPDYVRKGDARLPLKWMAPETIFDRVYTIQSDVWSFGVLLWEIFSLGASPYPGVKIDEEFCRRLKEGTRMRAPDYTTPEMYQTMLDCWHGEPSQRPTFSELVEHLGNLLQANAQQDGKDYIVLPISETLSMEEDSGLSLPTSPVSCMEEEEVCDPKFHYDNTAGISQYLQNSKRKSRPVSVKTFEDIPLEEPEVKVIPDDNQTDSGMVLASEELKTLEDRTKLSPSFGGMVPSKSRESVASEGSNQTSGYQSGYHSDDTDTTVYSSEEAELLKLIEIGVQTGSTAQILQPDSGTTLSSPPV
Mitogen-activated protein kinase 3 (Homo sapiens), sequence (P27361 whole entry): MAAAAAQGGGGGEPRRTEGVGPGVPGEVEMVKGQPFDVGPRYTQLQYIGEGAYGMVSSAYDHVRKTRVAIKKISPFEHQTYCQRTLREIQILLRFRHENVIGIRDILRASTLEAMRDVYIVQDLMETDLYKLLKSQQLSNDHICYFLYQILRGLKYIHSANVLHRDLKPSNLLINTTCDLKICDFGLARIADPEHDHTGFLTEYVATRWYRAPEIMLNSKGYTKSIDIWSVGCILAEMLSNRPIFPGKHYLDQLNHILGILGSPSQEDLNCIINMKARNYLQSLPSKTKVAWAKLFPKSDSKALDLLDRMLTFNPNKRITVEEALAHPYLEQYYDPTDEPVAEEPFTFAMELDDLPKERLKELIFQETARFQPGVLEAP
ALK tyrosine kinase receptor (Homo sapiens), Q9UM73 [C1156Y], sequence (Q9UM73 whole entry C1156Y, looked up): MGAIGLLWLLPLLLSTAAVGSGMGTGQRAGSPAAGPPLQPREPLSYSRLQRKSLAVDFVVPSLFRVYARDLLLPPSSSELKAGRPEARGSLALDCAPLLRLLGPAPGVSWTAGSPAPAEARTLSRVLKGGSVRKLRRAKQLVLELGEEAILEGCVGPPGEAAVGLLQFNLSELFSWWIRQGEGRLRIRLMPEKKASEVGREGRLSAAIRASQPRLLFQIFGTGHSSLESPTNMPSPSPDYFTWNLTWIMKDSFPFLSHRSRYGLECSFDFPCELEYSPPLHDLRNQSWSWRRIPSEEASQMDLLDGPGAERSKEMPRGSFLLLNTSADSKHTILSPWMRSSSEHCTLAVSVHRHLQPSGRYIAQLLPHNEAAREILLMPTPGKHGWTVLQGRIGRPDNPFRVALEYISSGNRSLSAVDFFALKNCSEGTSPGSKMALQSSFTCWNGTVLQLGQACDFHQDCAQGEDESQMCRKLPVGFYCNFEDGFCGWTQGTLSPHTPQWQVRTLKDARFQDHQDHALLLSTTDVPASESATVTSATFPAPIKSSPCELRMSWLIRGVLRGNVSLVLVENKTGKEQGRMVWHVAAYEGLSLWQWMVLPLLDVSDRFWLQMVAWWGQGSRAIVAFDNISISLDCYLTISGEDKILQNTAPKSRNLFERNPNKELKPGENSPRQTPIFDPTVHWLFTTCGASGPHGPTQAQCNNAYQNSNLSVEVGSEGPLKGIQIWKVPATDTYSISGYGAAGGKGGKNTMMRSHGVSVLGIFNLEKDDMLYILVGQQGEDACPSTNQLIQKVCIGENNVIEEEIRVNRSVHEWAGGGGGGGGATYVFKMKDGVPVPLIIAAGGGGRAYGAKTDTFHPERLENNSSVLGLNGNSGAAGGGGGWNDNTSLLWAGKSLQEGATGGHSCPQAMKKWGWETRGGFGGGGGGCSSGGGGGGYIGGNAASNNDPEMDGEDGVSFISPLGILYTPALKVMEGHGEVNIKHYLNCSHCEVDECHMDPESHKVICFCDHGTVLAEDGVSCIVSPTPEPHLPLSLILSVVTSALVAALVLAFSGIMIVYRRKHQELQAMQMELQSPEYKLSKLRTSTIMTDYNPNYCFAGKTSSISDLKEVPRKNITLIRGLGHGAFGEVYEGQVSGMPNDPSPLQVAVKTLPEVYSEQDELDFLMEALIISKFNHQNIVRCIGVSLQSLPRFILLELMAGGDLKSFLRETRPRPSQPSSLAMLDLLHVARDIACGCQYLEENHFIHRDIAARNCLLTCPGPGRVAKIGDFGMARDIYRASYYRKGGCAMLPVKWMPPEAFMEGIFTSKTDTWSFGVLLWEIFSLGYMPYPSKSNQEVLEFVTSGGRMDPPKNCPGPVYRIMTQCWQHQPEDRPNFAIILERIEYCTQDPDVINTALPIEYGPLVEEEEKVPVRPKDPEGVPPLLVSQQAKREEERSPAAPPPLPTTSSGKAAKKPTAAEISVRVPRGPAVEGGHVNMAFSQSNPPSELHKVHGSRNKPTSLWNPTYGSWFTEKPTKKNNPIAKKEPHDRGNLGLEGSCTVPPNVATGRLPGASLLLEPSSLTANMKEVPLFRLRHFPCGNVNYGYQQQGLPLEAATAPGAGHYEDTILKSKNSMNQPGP
MAP/microtubule affinity-regulating kinase 3 (Homo sapiens), sequence (P27448 whole entry, looked up): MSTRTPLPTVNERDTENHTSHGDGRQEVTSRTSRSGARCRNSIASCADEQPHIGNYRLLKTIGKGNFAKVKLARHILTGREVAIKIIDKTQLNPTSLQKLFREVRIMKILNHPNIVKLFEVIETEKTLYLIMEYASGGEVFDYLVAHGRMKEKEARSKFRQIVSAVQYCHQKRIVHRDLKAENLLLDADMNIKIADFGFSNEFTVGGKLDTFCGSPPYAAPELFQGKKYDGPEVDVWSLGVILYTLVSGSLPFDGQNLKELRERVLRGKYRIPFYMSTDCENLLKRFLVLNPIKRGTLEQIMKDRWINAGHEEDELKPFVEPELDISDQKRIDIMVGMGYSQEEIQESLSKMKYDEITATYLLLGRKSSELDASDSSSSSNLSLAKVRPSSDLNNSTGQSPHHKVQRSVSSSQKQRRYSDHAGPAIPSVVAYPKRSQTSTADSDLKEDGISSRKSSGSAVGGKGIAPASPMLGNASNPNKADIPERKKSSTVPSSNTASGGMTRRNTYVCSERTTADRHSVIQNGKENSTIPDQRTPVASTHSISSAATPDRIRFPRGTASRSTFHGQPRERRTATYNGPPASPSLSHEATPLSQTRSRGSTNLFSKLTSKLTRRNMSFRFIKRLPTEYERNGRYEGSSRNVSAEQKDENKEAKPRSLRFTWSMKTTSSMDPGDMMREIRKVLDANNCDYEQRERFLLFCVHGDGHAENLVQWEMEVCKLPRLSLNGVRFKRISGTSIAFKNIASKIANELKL

N#CC1(c2ccccn2)CCN(Cc2cc(C(=O)O)c(=O)n3ccccc23)CC1 [MSD-M1PAM]
inactive: residual activity [1] 100% | residual activity [2] 89% | residual activity [3] 100% | residual activity [4] 100% | residual activity [5] 100% | residual activity [6] 100% | residual activity [7] 100% | residual activity [8] 79% | residual activity [9] 100% | residual activity [10] 100% | residual activity [11] 96% | residual activity [12] 100% | residual activity [13] 100% | residual activity [14] 99% | residual activity [15] 100% | residual activity [16] 100% | residual activity [17] 68% | residual activity [18] 100% | residual activity [19] 91% | inhibition [20] -6.86% | residual activity [21] 84% | residual activity [22] 100% | residual activity [23] 100% | residual activity [24] 100% | residual activity [25] 99% | residual activity [26] 93% | residual activity [27] 100% | residual activity [28] 100% | residual activity [29] 100% | residual activity [30] 98% | residual activity [31] 84% | residual activity [32] 80% | residual activity [33] 84% | residual activity [34] 94% | residual activity [35] 81% | residual activity [36] 100% | residual activity [37] 72% | residual activity [38] 100% | residual activity [39] 98%

N#CC1(c2ccccn2)CCN(Cc2cc(C(=O)N3CCCC3)c(=O)n3ccccc23)CC1
inactive: residual activity [1] 100% | residual activity [2] 100% | residual activity [3] 100% | residual activity [4] 100% | residual activity [5] 91% | residual activity [6] 97% | residual activity [7] 100% | residual activity [8] 92% | residual activity [9] 94% | residual activity [10] 86% | residual activity [11] 95% | residual activity [12] 80% | residual activity [13] 91% | residual activity [14] 74% | residual activity [15] 96% | residual activity [16] 86% | residual activity [17] 79% | residual activity [18] 91% | residual activity [19] 100% | inhibition [20] -2.99% | residual activity [21] 93% | residual activity [22] 76% | residual activity [23] 79% | residual activity [24] 93% | residual activity [25] 79% | residual activity [26] 76% | residual activity [27] 100% | residual activity [28] 90% | residual activity [29] 87% | residual activity [30] 93% | residual activity [31] 97% | residual activity [32] 83% | residual activity [33] 95% | residual activity [34] 79% | residual activity [35] 60% | residual activity [36] 80% | residual activity [37] 100% | residual activity [38] 93% | residual activity [39] 100%
